Data taken from paper PMC8300687, “A Fine-Tuned Lipophilicity/Hydrophilicity Ratio Governs Antibacterial Potency and Selectivity of Bifurcated Halogen Bond-Forming NBTIs” (Antibiotics, 2021).
In brackets after ≈: the same amount, converted by molar mass. Where two headings read alike, the source gives them in different places.

Key:
[1] = target: T1, S. aureus DNA gyrase (Staphylococcus aureus, UniProt P20831); experiment: biochemical; type: biochemical; conditions: for LE DNA Gyrase S. aureus: LE = (1.37/HA) × pIC50; for IC50: fluorescence plate supercoiling assay, mean of two to four measurements
T1 construct: purchased Inspiralis (Norwich, UK)
Experimental: (§1) A Gyrase Supercoiling High Throughput Plate assay kit, purchased from Inspiralis (Norwich. UK) was used to determine IC50 values of compounds on S. aureus and E. coli. […] Biotinylated oligonucleotide in wash buffer was immobilized onto the wells, and the excess oligonucleotide was washed off with wash buffer and ultrapure water. […] The reactions were stopped by adding the TF buffer (50 mM NaOAc (pH 4.7), 50 mM NaCl, and 50 mM MgCl2) to allow the triplex formation (biotin-oligonucleotide-plasmid) for additional 30 min. Afterward, the unbound plasmid was washed off using TF buffer, and the solution of Promega Diamond dye in T10 buffer (10 mM Tris-HCl (pH 8.0), 1 mM EDTA) was added. […] IC50 value represents the mean of two to four independent measurements.

[2] = target: T2, E. coli DNA gyrase (Escherichia coli, UniProt P0AES4); experiment: Gyrase Supercoiling High Throughput Plate assay, E. coli; type: biochemical; conditions: for LE DNA Gyrase E. coli: LE = (1.37/HA) × pIC50
T2 construct: purchased Inspiralis (Norwich, UK)
Experimental: as §1

[3] = target: T3, E. coli Topo IV (Escherichia coli, UniProt P0AFI2); experiment: Topo IV Relaxation High Throughput Plate assay, E. coli; type: biochemical; conditions: for LE Topo IV E. coli: LE = (1.37/HA) × pIC50
T3 construct: purchased Inspiralis (Norwich, UK)
Experimental: A Topo IV Relaxation High Throughput Plate assay kit, purchased from Inspiralis (Norwich. UK) was used to determine IC50 values of compounds on S. aureus and E. coli. […] Biotinylated oligonucleotide in wash buffer was immobilized onto the wells, and the excess oligonucleotide was washed off with wash buffer and ultrapure water. 1.5 U of S. aureus or E. coli […] enzyme was incubated together with 0.75 μg of supercoiled pNO1 plasmid as a substrate in the presence of 3 μL inhibitor solution in 10% DMSO and 0.008% Tween 20 at 37 °C for 30 min in a final reaction volume of 30 μL in dilution buffer (50 mM Tris-HCl (pH 7.5), 1 mM DTT, 1 mM EDTA, 40% (w/v) glycerol for S. aureus and 40 mM HEPES, KOH (pH 7.6), 100 mM potassium glutamate, 1 mM DTT, 1 mM EDTA, and 40% (v/v) glycerol for E. coli). The reactions were stopped by adding the TF buffer (50 mM NaOAc (pH 4.7), 50 mM NaCl, and 50 mM MgCl2) to allow the triplex formation (biotin-oligonucleotide-plasmid) for additional 30 min. Afterward, the unbound plasmid was washed off using TF buffer, and the solution of Promega Diamond dye in T10 buffer (10 mM Tris-HCl (pH 8.0), 1 mM EDTA) was added. […] IC50 value represents the mean of two to four independent measurements.

[4] = system: S. aureus (ATCC 29213); experiment: MIC broth microdilution, S. aureus ATCC 29213; type: cell-based; conditions: Staphylococcus aureus, ATCC29213
Experimental: (§2) Antimicrobial testing was carried out by the broth microdilution method in 96-well plate format following the Clinical and Laboratory Standards Institute (CLSI) guidelines and European Committee on Antimicrobial Susceptibility Testing (EUCAST) recommendations. Bacterial suspension of specific bacterial strain equivalent to 0.5 McFarland turbidity standard was diluted with cation-adjusted Mueller Hinton broth with TES (Thermo Fisher Diagnostic, Landsmeer, The Netherlands), to obtain a final inoculum of 10^5 CFU/mL. Compounds dissolved in DMSO and inoculum were mixed together and incubated for 18–20 h at 35 °C. Suspensions of Mycobacterium sp. were prepared into a tube of Middelbrook 7H9 broth supplemented with 5% OADC (Thermo Scientific, Trek Diagnostic Systems, West Sussex, UK) and incubated for at least 10 days. After incubation the minimal inhibitory concentration (MIC) values were determined by visual inspection as the lowest dilution of compounds showing no turbidity. Tetracycline was used as a positive control on every assay plate.

[5] = system: MRSA (QA-11.7); experiment: MIC broth microdilution, MRSA QA-11.7; type: cell-based, methicillin-resistant S. aureus; conditions: Staphylococcus aureus, 20 h, read-out: MIC MRSA (QA-11.7)
Experimental: as §2

[6] = system: E. coli (ATCC 25922); experiment: MIC broth microdilution, E. coli ATCC 25922; type: cell-based; conditions: Escherichia coli
Experimental: as §2

[7] = system: E. coli (QA-11.8); experiment: MIC broth microdilution, E. coli QA-11.8; type: cell-based; conditions: Escherichia coli, 20 h; read-out: MIC E. coli (QA-11.8)
Experimental: as §2

[8] = system: E. coli (QA-11.7); experiment: MIC broth microdilution, E. coli QA-11.7; type: cell-based; conditions: Escherichia coli, 20 h; multi-resistant isolate (ampicillin, azithromycin, cefotaxime, ertapenem, imipenem and others); read-out: MIC E. coli (QA-11.7)
Experimental: as §2

[9] = system: E. coli (QA-11.3); experiment: MIC broth microdilution, E. coli QA-11.3; type: cell-based; conditions: Escherichia coli, 20 h; read-out: MIC E. coli (QA-11.3)
Experimental: as §2

[10] = system: S. alachua RDK 030c (QA-1482/04); experiment: MIC broth microdilution, S. alachua; type: cell-based; conditions: Salmonella; read-out: MIC S. alachua RDK 030c (QA-1482/04)
Experimental: as §2

[11] = system: C. jejuni RDK 135 (ATCC 33560); experiment: MIC broth microdilution, C. jejuni; type: cell-based; conditions: Campylobacter jejuni, ATCC33560; read-out: MIC C. jejuni RDK 135 (ATCC 33560)
Experimental: as §2

[12] = system: M. smegmatis; experiment: MIC, M. smegmatis; type: cell-based, Mycobacterium smegmatis; conditions: Mycolicibacterium smegmatis; read-out: MIC M. smegmatis
Experimental: as §2

[13] = S. aureus ATCC 29213, read-out: S. aureus MIC (converted)
[14] = read-out: MIC S. aureus (ATCC 29213)
[15] = ATCC25922, read-out: MIC E. coli (ATCC 25922)
[16] = ATCC25922, E. coli ATCC 25922, read-out: E. coli MIC (converted)

T2 sequence (P0AES4 whole entry): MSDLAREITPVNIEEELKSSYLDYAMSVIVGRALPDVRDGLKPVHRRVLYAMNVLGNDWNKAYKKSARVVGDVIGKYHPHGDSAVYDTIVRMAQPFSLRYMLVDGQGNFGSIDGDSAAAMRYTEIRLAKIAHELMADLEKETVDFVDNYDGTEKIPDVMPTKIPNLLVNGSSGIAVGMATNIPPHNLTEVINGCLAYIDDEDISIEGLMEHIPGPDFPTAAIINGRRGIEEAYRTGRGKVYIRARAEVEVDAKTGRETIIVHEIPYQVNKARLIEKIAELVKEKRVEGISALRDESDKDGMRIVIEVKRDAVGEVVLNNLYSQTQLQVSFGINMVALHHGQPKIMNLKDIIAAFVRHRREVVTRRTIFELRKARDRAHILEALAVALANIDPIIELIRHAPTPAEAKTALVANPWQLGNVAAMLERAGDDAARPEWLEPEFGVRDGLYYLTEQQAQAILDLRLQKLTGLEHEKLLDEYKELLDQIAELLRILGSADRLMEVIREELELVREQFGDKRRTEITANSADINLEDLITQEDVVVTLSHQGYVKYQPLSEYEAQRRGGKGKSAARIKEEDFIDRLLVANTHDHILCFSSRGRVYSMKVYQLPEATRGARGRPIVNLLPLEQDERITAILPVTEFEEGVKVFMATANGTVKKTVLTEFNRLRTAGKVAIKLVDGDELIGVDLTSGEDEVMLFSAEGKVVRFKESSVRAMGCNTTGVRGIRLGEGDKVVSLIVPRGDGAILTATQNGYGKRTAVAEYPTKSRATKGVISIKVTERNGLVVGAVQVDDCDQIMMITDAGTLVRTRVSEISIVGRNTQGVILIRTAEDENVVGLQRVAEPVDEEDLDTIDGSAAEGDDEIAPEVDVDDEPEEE
T1 sequence (P20831 whole entry): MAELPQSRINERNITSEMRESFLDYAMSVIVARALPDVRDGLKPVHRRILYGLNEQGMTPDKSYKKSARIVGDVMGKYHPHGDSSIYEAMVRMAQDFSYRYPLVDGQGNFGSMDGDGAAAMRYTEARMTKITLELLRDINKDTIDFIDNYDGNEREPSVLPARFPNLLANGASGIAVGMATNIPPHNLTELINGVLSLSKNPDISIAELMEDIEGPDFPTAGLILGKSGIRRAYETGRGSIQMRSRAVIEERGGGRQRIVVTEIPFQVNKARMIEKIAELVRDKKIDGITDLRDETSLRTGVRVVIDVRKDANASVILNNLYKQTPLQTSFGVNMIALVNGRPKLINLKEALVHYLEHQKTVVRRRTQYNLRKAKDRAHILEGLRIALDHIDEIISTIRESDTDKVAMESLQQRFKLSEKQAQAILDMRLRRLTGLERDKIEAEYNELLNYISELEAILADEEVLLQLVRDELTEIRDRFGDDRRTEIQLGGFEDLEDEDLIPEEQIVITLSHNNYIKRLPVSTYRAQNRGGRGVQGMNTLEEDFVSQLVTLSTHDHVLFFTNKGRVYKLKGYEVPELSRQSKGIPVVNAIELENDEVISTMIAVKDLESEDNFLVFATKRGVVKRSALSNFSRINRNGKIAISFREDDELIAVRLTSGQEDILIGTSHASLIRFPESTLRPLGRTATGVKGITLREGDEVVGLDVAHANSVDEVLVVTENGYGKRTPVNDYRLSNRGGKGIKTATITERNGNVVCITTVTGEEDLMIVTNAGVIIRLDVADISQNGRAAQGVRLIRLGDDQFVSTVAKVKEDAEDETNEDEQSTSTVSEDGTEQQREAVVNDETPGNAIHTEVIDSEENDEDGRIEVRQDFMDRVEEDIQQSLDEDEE
T1 sequence (P0A0K8 whole entry partner): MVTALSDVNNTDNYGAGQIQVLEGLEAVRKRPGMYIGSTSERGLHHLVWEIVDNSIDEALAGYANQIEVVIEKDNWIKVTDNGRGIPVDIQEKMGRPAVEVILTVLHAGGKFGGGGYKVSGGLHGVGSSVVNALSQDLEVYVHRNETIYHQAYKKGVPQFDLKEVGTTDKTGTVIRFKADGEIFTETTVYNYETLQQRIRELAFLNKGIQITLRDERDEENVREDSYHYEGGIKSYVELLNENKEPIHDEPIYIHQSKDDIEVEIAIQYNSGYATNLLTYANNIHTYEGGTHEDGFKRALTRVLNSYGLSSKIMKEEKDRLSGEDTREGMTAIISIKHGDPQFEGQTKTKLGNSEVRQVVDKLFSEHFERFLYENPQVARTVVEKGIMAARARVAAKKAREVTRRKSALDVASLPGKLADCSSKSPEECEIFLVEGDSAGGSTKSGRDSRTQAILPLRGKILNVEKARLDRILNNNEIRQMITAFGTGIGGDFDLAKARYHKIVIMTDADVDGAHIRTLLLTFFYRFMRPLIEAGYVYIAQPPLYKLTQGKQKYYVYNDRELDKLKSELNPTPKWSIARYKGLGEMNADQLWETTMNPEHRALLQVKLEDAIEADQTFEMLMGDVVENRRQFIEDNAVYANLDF
T3 sequence (P0AFI2 whole entry): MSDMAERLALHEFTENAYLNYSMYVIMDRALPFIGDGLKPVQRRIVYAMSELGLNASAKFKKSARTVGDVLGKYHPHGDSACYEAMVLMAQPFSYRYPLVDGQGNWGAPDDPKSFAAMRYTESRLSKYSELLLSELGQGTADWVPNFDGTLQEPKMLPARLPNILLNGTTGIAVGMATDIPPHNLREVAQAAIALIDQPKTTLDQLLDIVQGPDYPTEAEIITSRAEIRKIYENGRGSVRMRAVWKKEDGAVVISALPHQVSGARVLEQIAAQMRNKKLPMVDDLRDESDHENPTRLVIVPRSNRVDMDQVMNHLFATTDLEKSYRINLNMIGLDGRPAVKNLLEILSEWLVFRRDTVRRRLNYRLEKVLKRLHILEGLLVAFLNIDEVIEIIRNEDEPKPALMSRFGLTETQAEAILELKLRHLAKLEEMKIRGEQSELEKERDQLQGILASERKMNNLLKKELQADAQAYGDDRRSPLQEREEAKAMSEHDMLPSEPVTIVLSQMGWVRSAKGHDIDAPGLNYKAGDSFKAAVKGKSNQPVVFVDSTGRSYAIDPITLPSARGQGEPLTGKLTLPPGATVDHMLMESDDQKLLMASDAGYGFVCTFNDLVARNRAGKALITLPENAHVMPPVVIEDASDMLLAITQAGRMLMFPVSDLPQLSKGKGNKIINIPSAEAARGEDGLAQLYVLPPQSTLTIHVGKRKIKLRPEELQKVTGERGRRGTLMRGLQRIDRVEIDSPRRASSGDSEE
T3 sequence (P20083 whole entry, further chain): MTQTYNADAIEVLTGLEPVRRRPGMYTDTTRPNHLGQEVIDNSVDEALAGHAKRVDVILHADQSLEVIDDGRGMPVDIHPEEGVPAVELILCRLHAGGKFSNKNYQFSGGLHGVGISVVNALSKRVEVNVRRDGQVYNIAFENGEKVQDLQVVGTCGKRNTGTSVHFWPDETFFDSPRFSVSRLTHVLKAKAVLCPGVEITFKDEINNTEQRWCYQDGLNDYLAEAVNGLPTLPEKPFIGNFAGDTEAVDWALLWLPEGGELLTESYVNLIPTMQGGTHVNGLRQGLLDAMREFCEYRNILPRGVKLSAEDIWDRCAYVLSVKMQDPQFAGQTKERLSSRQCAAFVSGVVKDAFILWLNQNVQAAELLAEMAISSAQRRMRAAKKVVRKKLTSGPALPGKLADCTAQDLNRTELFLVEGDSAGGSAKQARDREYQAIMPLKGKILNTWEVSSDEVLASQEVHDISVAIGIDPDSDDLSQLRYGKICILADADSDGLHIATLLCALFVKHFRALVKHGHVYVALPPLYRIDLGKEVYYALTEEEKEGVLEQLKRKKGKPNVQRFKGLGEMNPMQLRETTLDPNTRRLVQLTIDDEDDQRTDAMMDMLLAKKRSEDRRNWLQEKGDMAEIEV

Structure (SMILES) | LE DNA Gyrase S. aureus [1] | IC50 [1] | IC50 [2] | IC50 [3] | LE Topo IV E. coli [3] | MIC [4, 13] | MIC [4, 14] | MIC [5] | MIC ([6]; ATCC25922, 20 h, E. coli ATCC 25922, read-out: E. coli MIC (converted)) | MIC [6, 15] | MIC [7] | MIC [8] | MIC [9] | MIC [10] | MIC [11] | MIC [12] | LE DNA Gyrase E. coli [2] | MIC [6, 16]
COc1ccc2nccc(CCN3CCC(NCc4ccc(C(N)=O)cc4)CC3)c2n1 [Compound 17] | 0.25 | 1820 ± 110 nM | > 100000 nM | 1150 ± 30 nM | 0.26 | 4.77 µM | 2 µg/mL | 4 µg/mL (≈ 9.53 µM) | 305 µM | > 128 µg/mL | > 128 µg/mL | 128 µg/mL (≈ 305 µM) | 128 µg/mL (≈ 305 µM) | > 128 µg/mL | 128 µg/mL (≈ 305 µM) | 16 µg/mL (≈ 38.1 µM) |  | 
COc1ccc2nccc(CCN3CCC(NCc4ccc(N(C)C)cc4)CC3)c2n1 [Compound 18] | 0.32 |  | 11900 ± 830 nM | > 100000 nM |  | 0.31 µM |  | 0.5 µg/mL (≈ 1.19 µM) |  | 32 µg/mL | 8 µg/mL (≈ 19.1 µM) | 4 µg/mL (≈ 9.53 µM) | 8 µg/mL (≈ 19.1 µM) | 128 µg/mL (≈ 305 µM) | 4 µg/mL (≈ 9.53 µM) | 4 µg/mL (≈ 9.53 µM) | 0.22 | 78.5 µM
COc1ccc2nccc(CCN3CCC(NCc4ccc(OC(F)F)c(OC)c4)CC3)c2n1 [Compound 19, N-(4-(Difluoromethoxy)-3-methoxybenzyl)-1-(2-(6-methoxy-1,5-naphthyridin-4-yl)ethyl)piperidin-4-amine] | 0.26 | 350 ± 30 nM | 3900 ± 60 nM | 100 ± 10 nM | 0.28 | 2.12 µM | 1 µg/mL | 2 µg/mL (≈ 4.23 µM) |  | 32 µg/mL | 4 µg/mL (≈ 8.46 µM) | 2 µg/mL (≈ 4.23 µM) | 4 µg/mL (≈ 8.46 µM) | 128 µg/mL (≈ 271 µM) | 2 µg/mL (≈ 4.23 µM) | 4 µg/mL (≈ 8.46 µM) | 0.22 | 67.7 µM
COc1ccc2nccc(CCN3CCC(NCc4ccc(OC(F)F)c(O)c4)CC3)c2n1 [Compound 20, 2-(Difluoromethoxy)-5-((1-(2-(6-methoxy-1,5-naphthyridin-4-yl)ethyl)piperidin-4-ylamino)methyl)phenol] | 0.27 | 330 ± 20 nM | 4410 ± 160 nM | 60 nM | 0.30 | 1.09 µM | 0.5 µg/mL | 0.5 µg/mL (≈ 1.09 µM) |  | 8 µg/mL | 4 µg/mL (≈ 8.72 µM) | 2 µg/mL (≈ 4.36 µM) | 1 µg/mL (≈ 2.18 µM) | 64 µg/mL (≈ 140 µM) | 0.015 µg/mL (≈ 0.0327 µM) | 0.5 µg/mL (≈ 1.09 µM) | 0.22 | 17.4 µM
COc1ccc2nccc(CCN3CCC(NCc4ccc(C(F)(F)F)nc4)CC3)c2n1 [Compound 21, 1-(2-(6-Methoxy-1,5-naphthyridin-4-yl)ethyl)-N-((6-(trifluoromethyl)pyridin-3-yl)methyl)piperidin-4-amine] | 0.29 | 160 ± 20 nM | 6910 ± 1620 nM | > 100000 nM |  | 0.56 µM | 0.25 µg/mL | 1 µg/mL (≈ 2.24 µM) |  | 32 µg/mL | 8 µg/mL (≈ 18 µM) | 2 µg/mL (≈ 4.49 µM) | 8 µg/mL (≈ 18 µM) | 128 µg/mL (≈ 287 µM) | 128 µg/mL (≈ 287 µM) | 0.25 µg/mL (≈ 0.561 µM) | 0.22 | 71.8 µM
